From US6630125B2, “18F-labeled choline analogs” (priority 2000, dated 2003)
Entries after “also recorded” stand apart in the source; their conditions may differ. Like-named read-outs stand apart in the source and are kept apart here.

Experiments:
[1] = Human dosimetry estimation (MIRDOSE 3.1 from mouse biodistribution)
From the text: Urinary radioactivity was assumed to be retained within the urinary bladder. […] Since urinary excretion patterns in rodents are commonly more rapid than in the human, the assumption of no urinary clearance of radioactivity was precautionary. Bone uptake was distributed at the bone surfaces. The 70 kg adult male ORNL phantom was used since this would best reflect the primary study population (prostate carcinoma).

[2] = Stability of FCH in human whole blood; assay type: in vitro ADME; details: 2 hr, 37 C, blood of healthy human subjects (n=5)
Experimental: (§1) The stability of FCH in its prepared form was evaluated by monitoring the radiochemical purity using the HPLC system described above. […] After an incubation of 2 hr at 37 C, the plasma was separated, the plasma proteins precipitated by adding two volumes of methanol, and the supernatant was analyzed for intact FCH by cation-exchange HPLC. […] FCH was also found to be stable in a blood samples taken from healthy human subjects (n=5).

[3] = Stability of the FCH preparation (HPLC); assay type: physicochemical; details: room temperature for 7 hr, cation-exchange HPLC
Experimental: as §1

[4] = test system: patients with brain tumors; assay: PET imaging in patients with brain tumors; assay type: in vivo, human; details: 5 patients with resected brain tumors, after injection
Experimental: (§2) In breast cancer patients, whole-body PET scans were obtained, beginning at 10 min post-administration of FCH. In patients with brain tumors, PET scans of the brain were obtained, beginning at 5 min post-administration of FCH.
PET imaging was performed in 5 patients with resected brain tumors for evaluation of recurrence of cancer. Dynamic images were obtained over the brain for the first 15 min after injection of FCH (2.5-6 mCi). Transmission scans were acquired before injection of radiotracer for purposes of attenuation correction. […] Radioactivity concentration in normal brain tissue was very low, allowing excellent delineation of the tumor. […] (See FIG. 12)

[5] = test system: PC-3 human prostate cancer cells; assay: Accumulation of radiotracers by cultured PC-3 cells; assay type: cell-based
Experimental: The incubation media utilized for the experiments differed according to the cancer cell type (Table 1). On the day of the study, the medium was refreshed using a volume of 1 ml in each well. Cells were incubated in control conditions or with the addition of metabolic and growth factor receptor inhibitors to test the sensitivity of uptake of the radiotracers to specific inhibitions. […] Following a 30-min incubation period, the radiotracers (e.g., FDG or FCH) were added (˜2 µCi/well) and the cells were incubated for 2 hr. The cells were washed three times with phosphate buffered saline solution, released from the plates by briefly incubating with 0.05% trypsin in DMEM, transferred to test tubes, and counted for F-18 radioactivity in a gamma counter. The amount of radioactivity in the cells was normalized by the dose administered to each well.
The present work studies the structure-activity relationships for purposes of optimization of the molecule for imaging prostate cancer. […] A number of structural analogs of choline were labeled as N-[^18F]fluoromethyl derivatives via the intermediate [^18F]fluorobromomethane (see Table 3). Uptake of the radiotracers was assessed in cultured PC-3 human prostate cancer cells and in a murine PC-3 xenograft model.

[6] = test system: mice with PC-3 xenografts
Experimental: Body weight and tumor volume were measured weekly and tumor volume (mm3) was calculated using the formula S2×L/2, where S and L represent the small and large diameters of the tumor, respectively.
A prescribed duration of time was allowed before procurement of heart, liver, lung, blood, kidney, bone (femur), brain (whole), prostate gland, tumor, bladder, and skeletal muscle. The tissues were weighed, and counted for ^18F in a gamma counter, then dissolved in Solvable (Dupont, Boston Mass.) and counted for ^14C in a liquid scintillation counter. For the bladder, the percentage of the injected dose in the urine was determined. For all other tissues, radiotracer uptake was calculated as: […]

[7] = test system: patients with breast cancer; assay: PET imaging in patients with breast cancer; assay type: in vivo, human; details: person, metastatic breast cancer
Experimental: as §2
Thirteen patients with metastatic breast cancer and one patient with both primary and metastatic breast cancer were each imaged with both FCH-PET and FDG-PET within a period of less than one month.
A person had undergone re-excision of right breast intraductal carcinoma 4 yr prior, then right modified radical mastectomy 3 yr prior followed by tamoxifen chemotherapy. Six months prior to the PET scans, metastatic breast cancer was detected by palpation (right breast sternal mass) and CT (mediastinal and hilar adenopathies, mass in right anterior pelvis). Tamoxifen therapy was stopped. […] Uptake of FCH was also observed in the corresponding tumors: sternal mass (SUV=14.6), mediastinal and hilar adenopathies (SUVs˜8.5), pelvic mass (SUV=6.5). […] Smaller metastases were indicated on the FCH-PET scan in the right chest wall and left lung that were not seen on the FDG-PET scan. Concerning the anterior pelvic tumor, there was observed a homogenous distribution of FDG across the tumor in the FDG-PET scan, whereas the FCH was preferentially distributed on the periphery of the tumor.

[8] = calculated from mice biodistribution data

C[N+](C)(CF)CCO.[Cl-] [FCH, dimethylfluoromethyl-2-hydroxyethylammonium chloride]
effective dose equivalent (EDE) ([1]; 10 mCi administration): 1.1 rem | largest organ dose (kidney) ([1]; 10 mCi administration): 8.1 rads/rems | Human radiation dose estimate, Heart ([1]; calculated from mice FCH biodistribution data, 70 kg adult male phantom): 0.046 rads/mCi | Human radiation dose estimate, Bladder wall [1, 8]: 0.049 rads/mCi | Human radiation dose estimate, Bone [1, 8]: 0.038 rads/mCi | Human radiation dose estimate, Brain [1, 8]: 0.0071 rads/mCi | Human radiation dose estimate, Kidney [1, 8]: 0.81 rads/mCi | Human radiation dose estimate, Liver [1, 8]: 0.30 rads/mCi | Human radiation dose estimate, Lung [1, 8]: 0.043 rads/mCi | Human radiation dose estimate, Muscle [1, 8]: 0.032 rads/mCi | Human radiation dose estimate, Ovaries [1, 8]: 0.039 rads/mCi | Human radiation dose estimate, Red marrow [1, 8]: 0.043 rads/mCi | Human radiation dose estimate, Testes [1, 8]: 0.028 rads/mCi | stability in whole blood (HPLC) [2]: completely intact | radiochemical purity after storage of the preparation [3]: > 99% | time to plateau of radiotracer concentration in the tumor [4]: ≤ 5 min | uptake in cultured PC-3 cells [5]: ~2 %/hr/100,000 cells plated | Uptake by PC-3 cancer cells, HC-3 ([5]; 5 mM hemicholinium-3): 0.18 ± 0.02 % dose/2 hr/105 cells plated | decrease in uptake by PC-3 cells with hemicholinium-3 (HC-3) ([5]; HC-3 versus control): 89% | uptake of FCH relative to HARA-1 ([5]; PC-3 prostate cancer cells): 3 fold | accumulation by cultured PC-3 cells compared with other tracers ([5]; control conditions): similarly to CH | Uptake by PC-3 cancer cells, Control ([5]; control, 2 hr incubation): 1.58 ± 0.18 % dose/2 hr/105 cells plated | Uptake by PC-3 cells ([5]; inhibitor HC-3 (hemicholinium-3, 5 mM)): 0.160 ± 0.009 % dose/2 hr/10^5 cells plated | Uptake by PC-3 cells ([5]; inhibitor none): 1.574 ± 0.033 % dose/2 hr/10^5 cells plated | Uptake in Blood ([6]; 10 min): 2.7 ± 0.9 % dose kg/100 g | Uptake in Brain ([6]; 10 min): 0.8 ± 0.3 % dose kg/100 g | Uptake in Heart ([6]; 10 min): 15.5 ± 5.9 % dose kg/100 g | Uptake in Kidney ([6]; 10 min): 127.7 ± 27.6 % dose kg/100 g | Uptake in Liver ([6]; 10 min): 50.7 ± 15.3 % dose kg/100 g | Uptake in Lung ([6]; 10 min): 18.0 ± 5.3 % dose kg/100 g | Uptake in Prostate ([6]; 10 min): 6.6 ± 2.2 % dose kg/100 g | Uptake in Skeletal Muscle ([6]; 10 min): 4.4 ± 1.8 % dose kg/100 g | Uptake in Tumor ([6]; 10 min): 3.6 ± 0.6 % dose kg/100 g | Uptake in Blood ([6]; 30 min): 3.3 ± 0.2 % dose kg/100 g | Uptake in Brain ([6]; 30 min): 1.0 ± 0.2 % dose kg/100 g | Uptake in Heart ([6]; 30 min): 13.2 ± 2.6 % dose kg/100 g | Uptake in Kidney ([6]; 30 min): 116 ± 17 % dose kg/100 g | Uptake in Liver ([6]; 30 min): 56.7 ± 13.2 % dose kg/100 g | Uptake in Lung ([6]; 30 min): 17.1 ± 1.4 % dose kg/100 g | Uptake in Prostate ([6]; 30 min): 7.1 ± 2.1 % dose kg/100 g | Uptake in Skeletal Muscle ([6]; 30 min): 1.1 ± 1.0 % dose kg/100 g | Uptake in Tumor ([6]; 30 min): 7.1 ± 2.1 % dose kg/100 g | Uptake in Blood ([6]; 60 min): 1.5 ± 0.6 % dose kg/100 g | Uptake in Brain ([6]; 60 min): 0.8 ± 0.1 % dose kg/100 g | Uptake in Heart ([6]; 60 min): 12.7 ± 3.2 % dose kg/100 g | Uptake in Kidney ([6]; 60 min): 94.3 ± 31.0 % dose kg/100 g | Uptake in Liver ([6]; 60 min): 58.4 ± 40.6 % dose kg/100 g | Uptake in Lung ([6]; 60 min): 21 ± 4.4 % dose kg/100 g | Uptake in Prostate ([6]; 60 min): 7.1 ± 3.0 % dose kg/100 g | Uptake in Skeletal Muscle ([6]; 60 min): 4.1 ± 0.6 % dose kg/100 g | Uptake in Tumor ([6]; 60 min): 7.9 ± 5.0 % dose kg/100 g | tumor uptake ([6]; PC-3 xenograft): ~0.07 % dose kg/g | injected dose in the urinary bladder ([6]; at 30 min): 10% | tumor:blood ratio ([6]; at 60 min): 5.3±2.4 | liver uptake compared with CH ([6]; mouse, in vivo): lower | uptake by normal brain compared with other tracers ([6]; mouse, in vivo): one tenth that for FDG; also recorded: one half that of CH | SUV of pelvic tumor / pelvic mass [7]: 6.5 | SUV of sternal mass [7]: 14.6 | SUVs of mediastinal and hilar adenopathies [7]: ~8.5
